# Literature values as cited in patent US20060142288A1, “Combinations and methods for headaches” (priority 2004, published 2006).
# Columns and labels:
# [1] = 500 mg daily, six year trial
# [2] = 650 mg/day, migraine patients
# [3] = 13.5 mg/kg/day or ~1 g per day
# [4] = molecular target: T1, canine COX-3 (Canis lupus familiaris, UniProt Q8HZR1); details: canine COX-3 compared with murine COX-1 and COX-2
# T1 sequence (Q8HZR1 1-633 isoform Q8HZR1-2): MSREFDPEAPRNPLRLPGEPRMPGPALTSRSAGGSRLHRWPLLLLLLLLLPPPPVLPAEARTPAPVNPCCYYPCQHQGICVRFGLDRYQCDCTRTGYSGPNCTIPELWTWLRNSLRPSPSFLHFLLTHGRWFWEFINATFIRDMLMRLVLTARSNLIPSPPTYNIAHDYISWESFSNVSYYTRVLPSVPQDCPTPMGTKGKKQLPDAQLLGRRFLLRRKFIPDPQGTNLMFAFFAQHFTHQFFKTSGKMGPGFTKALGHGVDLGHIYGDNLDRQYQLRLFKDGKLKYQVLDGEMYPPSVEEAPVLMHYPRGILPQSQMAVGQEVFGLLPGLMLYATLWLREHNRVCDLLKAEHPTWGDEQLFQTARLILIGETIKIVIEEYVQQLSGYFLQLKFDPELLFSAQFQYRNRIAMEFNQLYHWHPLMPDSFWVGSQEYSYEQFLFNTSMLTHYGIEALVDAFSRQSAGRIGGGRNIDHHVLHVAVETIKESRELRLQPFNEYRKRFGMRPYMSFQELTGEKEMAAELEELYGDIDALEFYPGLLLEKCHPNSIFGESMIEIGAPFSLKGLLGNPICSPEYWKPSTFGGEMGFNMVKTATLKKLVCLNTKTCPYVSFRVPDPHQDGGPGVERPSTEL
# [5] = ASA 500 mg TID, metoprolol in the same study
structure (smiles),measurement,setting,value
"CC(=O)Oc1ccccc1C(=O)O [ASA, acetylsalicyclic acid]",reduction of the incidence of migraine,[1],30%
same,patients with a reduction of more than 50% in headache frequency,[2],9 of 12
same,overall migraine frequency,"500 mg TID, p<0.001",reduced significantly
same,subjects with a reduction of attacks >50% (number of subjects),[5],3 of 22
same,subjects with a reduction of attacks >50% (percent of subjects),[5],14%
same,"frequency, severity and duration of migraine attacks",[3],significantly decrease
CC(=O)Nc1ccc(O)cc1 [acetaminophen],selective inhibition of COX-3,[4],selectively inhibit
Cc1cc(=O)n(-c2ccccc2)n1C [antipyrine],selective inhibition of COX-3,[4],selectively inhibit
Cc1c(N(C)CS(=O)(=O)[O-])c(=O)n(-c2ccccc2)n1C.[Na+] [dipyrone],selective inhibition of COX-3,[4],selectively inhibit
CCOc1ccc(NC(C)=O)cc1 [phenacetin],selective inhibition of COX-3,[4],selectively inhibit
